Results as given in ChEMBL document CHEMBL4840358, “Discovery of Modified Amidate (ProTide) Prodrugs of Tenofovir with Enhanced Antiviral Properties” (J Med Chem, 2021).
pEC50: −log10 of the molar value.

Legend:
[1] = Cytotoxicity against in human MT4 cells after 5 days by XTT assay; format: cell-based; settings: time 5 day
[2] = system: Human immunodeficiency virus 1; experiment: Antiviral activity against HIV-1 infected in MT4 cells assessed as reduction in virus-induced cytopathic effect preincubated for 1 hr followed by viral infection and measured after 5 days by XTT assay; format: functional, organism-based; settings: Human immunodeficiency virus 1, MT4

Row | Structure (SMILES) | CC50 at 120 h [1] [nM] | pEC50 [2]
1 | COC(=O)[C@H](Cc1ccc(O[P@](=O)(CO[C@H](C)Cn2cnc3c(N)ncnc32)N[C@@H](C)C(=O)OC(C)C)cc1)N1CCCC1 | 24000 | 7.96
2 | COC(=O)[C@H](Cc1ccc(O[P@@](=O)(CO[C@H](C)Cn2cnc3c(N)ncnc32)N[C@@H](C)C(=O)OC(C)C)cc1)N(C)C | 38000 | 7.32
3 | CC(C)OC(=O)[C@H](C)N[P@](=O)(CO[C@H](C)Cn1cnc2c(N)ncnc21)Oc1ccc(C[C@@H](NC(=O)OCc2ccccc2)C(=O)OC2CCCC2)cc1 | 20000 | 9.17
4 | CC(C)OC(=O)[C@H](C)N[P@@](=O)(CO[C@H](C)Cn1cnc2c(N)ncnc21)Oc1ccc(C[C@H](NC(=O)OCc2ccccc2)C(=O)OC(C)C)cc1 | 13000 | 7.57
5 | CCCCCCOC(=O)[C@H](Cc1ccc(O[P@](=O)(CO[C@H](C)Cn2cnc3c(N)ncnc32)N[C@@H](C)C(=O)OC(C)C)cc1)NC(=O)OCc1ccccc1 | 17000 | 7.64
6 | CC(C)CCOC(=O)[C@H](Cc1ccc(O[P@](=O)(CO[C@H](C)Cn2cnc3c(N)ncnc32)N[C@@H](C)C(=O)OC(C)C)cc1)NC(=O)OCc1ccccc1 | 24000 | 7.96
7 | COC(=O)[C@@H](N)Cc1ccc(O[P@](=O)(CO[C@H](C)Cn2cnc3c(N)ncnc32)N[C@@H](C)C(=O)OC(C)C)cc1 | > 50000 | 6.19
8 | CC(C)OC(=O)[C@H](C)NP(=O)(CO[C@H](C)Cn1cnc2c(N)ncnc21)Oc1ccc(C[C@H](NC(=O)OCc2ccccc2)C(=O)OCc2cccs2)cc1 (stereo not given in full) | 8200 | 8.47
9 | CCC(CC)COC(=O)[C@H](Cc1ccc(O[P@](=O)(CO[C@H](C)Cn2cnc3c(N)ncnc32)N[C@@H](C)C(=O)OC(C)C)cc1)NC(=O)OCc1ccccc1 | 38000 | 7.44
10 | COC(=O)[C@H](Cc1ccc(O[P@](=O)(CO[C@H](C)Cn2cnc3c(N)ncnc32)N[C@@H](C)C(=O)OC(C)C)cc1)N(C)C | > 50000 | 5.60
11 | COC(=O)[C@H](Cc1ccc(O[P@@](=O)(CO[C@H](C)Cn2cnc3c(N)ncnc32)N[C@@H](C)C(=O)OC(C)C)cc1)NC(=O)c1ccccc1 | > 50000 | 7.08
12 | CC(C)OC(=O)[C@H](C)NP(=O)(CO[C@H](C)Cn1cnc2c(N)ncnc21)Oc1ccc(C[C@H](NC(=O)OCc2ccccc2)C(=O)OCc2ccccc2)cc1 (stereo not given in full) | 10000 | 8.05
13 | CC(C)OC(=O)[C@H](C)NP(=O)(CO[C@H](C)Cn1cnc2c(N)ncnc21)Oc1ccc(C[C@H](NC(=O)OCc2ccccc2)C(=O)OC(C)(C)C)cc1 (stereo not given in full) | 6600 | 7.89
14 | CC(C)OC(=O)[C@H](C)N[P@](=O)(CO[C@H](C)Cn1cnc2c(N)ncnc21)Oc1ccc(C[C@H](NC(=O)OCc2ccccc2)C(=O)OC2CCCCC2)cc1 | 9100 | 8.08
15 | CCOC(=O)[C@H](Cc1ccc(O[P@@](=O)(CO[C@H](C)Cn2cnc3c(N)ncnc32)N[C@@H](C)C(=O)OC(C)C)cc1)NC(=O)OCc1ccccc1 | 11000 | 8.48
16 | CC(C)OC(=O)[C@H](C)N[P@@](=O)(CO[C@H](C)Cn1cnc2c(N)ncnc21)Oc1ccc(C[C@H](NC(=O)OCc2ccccc2)C(=O)OC2CCCCC2)cc1 | 14000 | 7.68
17 | CCOC(=O)[C@H](Cc1ccc(O[P@](=O)(CO[C@H](C)Cn2cnc3c(N)ncnc32)N[C@@H](C)C(=O)OC(C)C)cc1)NC(=O)OCc1ccccc1 | 13000 | 7.70
18 | COC(=O)[C@H](Cc1ccc(O[P@](=O)(CO[C@H](C)Cn2cnc3c(N)ncnc32)N[C@@H](C)C(=O)OC(C)C)cc1)NC(=O)c1ccccc1 | > 50000 | 7.14
19 | CCCCCCCCOC(=O)[C@H](Cc1ccc(OP(=O)(CO[C@H](C)Cn2cnc3c(N)ncnc32)N[C@@H](C)C(=O)OC(C)C)cc1)NC(=O)OCc1ccccc1 (stereo not given in full) | 27000 | 7.42
20 | CC(C)OC(=O)[C@H](C)N[P@@](=O)(CO[C@H](C)Cn1cnc2c(N)ncnc21)Oc1ccc(C[C@H](NC(=O)OCc2ccccc2)C(=O)NC2CCCC2)cc1 | 17000 | 8.00
